Reference: patent US20030153618A1, “Treatment and prevention of herpes simplex infections” (priority 1999, published 2003)

System: HSV, Type II
Test: Direct plaque-forming unit (PFU) count in BSC cells in defined media with set lysine (or derivative):arginine ratio
Format: cell-based
Conditions: average of three tests
Protocol: Absorbed virons were absorbed in susceptible cells in chemically defined media and the number of plaques made were counted. (See Davis, B. D., et al., Microbiology, 2nd Ed., Harper & Row, 1973, Part V, and sources cited therein for procedural details and discussion of the plaque method.)
The cell line chosen was green monkey kidney cells (BSC) that have been passed greater than 41 times. […] The virons were added to a confluent lawn of BSC cells and allowed to absorb at 25° C. for one hour. The unabsorbed virons and the media were removed by washing three times in PBS. […] The control media contained a lysine/arginine ratio of 1:1. The plaques were counted when easily readable. Flasks are done in triplicate.

NCCCCCC(N)C(=O)O (centres unmarked) [drawing 16]
P.F.U. Count (Compound Ratio to Arginine 10:1): <5 | P.F.U. Count (Compound Ratio to Arginine 100:1): <5
